Assay results from the NIST ThermoML archive (doi:10.1016/j.jct.2015.11.023).
± gives the expanded uncertainty stated by the source.

Tests used:
[1] = refractive index (Na D-line) (dimensionless); wn = mass fraction of the nth substance listed; conditions: 100 kPa, Liquid, Standard Abbe refractometry
[2] = wn = mass fraction of the nth substance listed; conditions: for surface tension liquid-gas: Maximal bubble pressure; for mass density: 100 kPa, Liquid, Vibrating tube method

CCC[n+]1ccccc1.N#C[N-]C#N [1-propylpyridinium dicyanamide] + O
Conditions | mass density [kg/m3] | refractive index | surface tension liquid-gas [mN/m]
[1], 303.15 K, w2 = 0.00205 | – | 1.5386 ± 0.006 | –
[1], 303.15 K, w2 = 0.00353 | – | 1.5384 ± 0.006 | –
[1], 303.15 K, w2 = 0.00496 | – | 1.5381 ± 0.006 | –
[1], 303.15 K, w2 = 0.00639 | – | 1.5378 ± 0.006 | –
[1], 303.15 K, w2 = 0.0079 | – | 1.5375 ± 0.006 | –
[1], 308.15 K, w2 = 0.00205 | – | 1.537 ± 0.006 | –
[1], 308.15 K, w2 = 0.00353 | – | 1.5368 ± 0.006 | –
[1], 308.15 K, w2 = 0.00496 | – | 1.5365 ± 0.006 | –
[1], 308.15 K, w2 = 0.00639 | – | 1.5362 ± 0.006 | –
[1], 308.15 K, w2 = 0.0079 | – | 1.5359 ± 0.006 | –
[1], 313.15 K, w2 = 0.00205 | – | 1.5352 ± 0.006 | –
[1], 313.15 K, w2 = 0.00353 | – | 1.5349 ± 0.006 | –
[1], 313.15 K, w2 = 0.00496 | – | 1.5347 ± 0.006 | –
[1], 313.15 K, w2 = 0.00639 | – | 1.5344 ± 0.006 | –
[1], 313.15 K, w2 = 0.0079 | – | 1.5341 ± 0.006 | –
[1], 318.15 K, w2 = 0.00205 | – | 1.5338 ± 0.006 | –
[1], 318.15 K, w2 = 0.00353 | – | 1.5335 ± 0.006 | –
[1], 318.15 K, w2 = 0.00496 | – | 1.5332 ± 0.006 | –
[1], 318.15 K, w2 = 0.00639 | – | 1.5329 ± 0.006 | –
[1], 318.15 K, w2 = 0.0079 | – | 1.5327 ± 0.006 | –
[1], 323.15 K, w2 = 0.00205 | – | 1.5325 ± 0.006 | –
[1], 323.15 K, w2 = 0.00353 | – | 1.5322 ± 0.006 | –
[1], 323.15 K, w2 = 0.00496 | – | 1.5319 ± 0.006 | –
[1], 323.15 K, w2 = 0.00639 | – | 1.5316 ± 0.006 | –
[1], 323.15 K, w2 = 0.0079 | – | 1.5313 ± 0.006 | –
[1], 328.15 K, w2 = 0.00205 | – | 1.5308 ± 0.006 | –
[1], 328.15 K, w2 = 0.00353 | – | 1.5306 ± 0.006 | –
[1], 328.15 K, w2 = 0.00496 | – | 1.5303 ± 0.006 | –
[1], 328.15 K, w2 = 0.00639 | – | 1.5301 ± 0.006 | –
[1], 328.15 K, w2 = 0.0079 | – | 1.5298 ± 0.006 | –
[1], 333.15 K, w2 = 0.00205 | – | 1.529 ± 0.006 | –
[1], 333.15 K, w2 = 0.00353 | – | 1.5288 ± 0.006 | –
[1], 333.15 K, w2 = 0.00496 | – | 1.5286 ± 0.006 | –
[1], 333.15 K, w2 = 0.00639 | – | 1.5283 ± 0.006 | –
[1], 333.15 K, w2 = 0.0079 | – | 1.5281 ± 0.006 | –
[1], 338.15 K, w2 = 0.00205 | – | 1.5273 ± 0.006 | –
[1], 338.15 K, w2 = 0.00353 | – | 1.527 ± 0.006 | –
[1], 338.15 K, w2 = 0.00496 | – | 1.5268 ± 0.006 | –
[1], 338.15 K, w2 = 0.00639 | – | 1.5265 ± 0.006 | –
[1], 338.15 K, w2 = 0.0079 | – | 1.5263 ± 0.006 | –
[2], 303.15 K, w2 = 0.00121 | 1086.72 ± 4.1 | – | –
[2], 303.15 K, w2 = 0.00205 | – | – | 58.1 ± 0.8
[2], 303.15 K, w2 = 0.00271 | 1086.48 ± 4.1 | – | –
[2], 303.15 K, w2 = 0.0035 | – | – | 58.4 ± 0.8
[2], 303.15 K, w2 = 0.00412 | 1086.25 ± 4.1 | – | –
[2], 303.15 K, w2 = 0.005 | – | – | 58.7 ± 0.8
[2], 303.15 K, w2 = 0.00573 | 1085.98 ± 4.1 | – | –
[2], 303.15 K, w2 = 0.00649 | – | – | 59 ± 0.8
[2], 303.15 K, w2 = 0.00724 | 1085.74 ± 4.1 | – | –
[2], 303.15 K, w2 = 0.00802 | – | – | 59.3 ± 0.8
[2], 308.15 K, w2 = 0.00121 | 1083.57 ± 4.1 | – | –
[2], 308.15 K, w2 = 0.00205 | – | – | 57.8 ± 0.8
[2], 308.15 K, w2 = 0.00271 | 1083.3 ± 4.1 | – | –
[2], 308.15 K, w2 = 0.0035 | – | – | 58.1 ± 0.8
[2], 308.15 K, w2 = 0.00412 | 1083.06 ± 4.1 | – | –
[2], 308.15 K, w2 = 0.005 | – | – | 58.4 ± 0.8
[2], 308.15 K, w2 = 0.00573 | 1082.77 ± 4.1 | – | –
[2], 308.15 K, w2 = 0.00649 | – | – | 58.7 ± 0.8
[2], 308.15 K, w2 = 0.00724 | 1082.49 ± 4.1 | – | –
[2], 308.15 K, w2 = 0.00802 | – | – | 59 ± 0.8
[2], 313.15 K, w2 = 0.00121 | 1080.46 ± 4.1 | – | –
[2], 313.15 K, w2 = 0.00205 | – | – | 57.4 ± 0.8
[2], 313.15 K, w2 = 0.00271 | 1080.2 ± 4.1 | – | –
[2], 313.15 K, w2 = 0.0035 | – | – | 57.8 ± 0.8
[2], 313.15 K, w2 = 0.00412 | 1079.95 ± 4.1 | – | –
[2], 313.15 K, w2 = 0.005 | – | – | 58.1 ± 0.8
[2], 313.15 K, w2 = 0.00573 | 1079.65 ± 4.1 | – | –
[2], 313.15 K, w2 = 0.00649 | – | – | 58.4 ± 0.8
[2], 313.15 K, w2 = 0.00724 | 1079.36 ± 4.1 | – | –
[2], 313.15 K, w2 = 0.00802 | – | – | 58.7 ± 0.8
[2], 318.15 K, w2 = 0.00121 | 1077.36 ± 4.1 | – | –
[2], 318.15 K, w2 = 0.00205 | – | – | 57.1 ± 0.8
[2], 318.15 K, w2 = 0.00271 | 1077.12 ± 4.1 | – | –
[2], 318.15 K, w2 = 0.0035 | – | – | 57.5 ± 0.8
[2], 318.15 K, w2 = 0.00412 | 1076.87 ± 4.1 | – | –
[2], 318.15 K, w2 = 0.005 | – | – | 57.8 ± 0.8
[2], 318.15 K, w2 = 0.00573 | 1076.55 ± 4.1 | – | –
[2], 318.15 K, w2 = 0.00649 | – | – | 58.1 ± 0.8
[2], 318.15 K, w2 = 0.00724 | 1076.27 ± 4.1 | – | –
[2], 318.15 K, w2 = 0.00802 | – | – | 58.4 ± 0.8
[2], 323.15 K, w2 = 0.00121 | 1074.29 ± 4.1 | – | –
[2], 323.15 K, w2 = 0.00205 | – | – | 56.9 ± 0.8
[2], 323.15 K, w2 = 0.00271 | 1074.02 ± 4.1 | – | –
[2], 323.15 K, w2 = 0.0035 | – | – | 57.2 ± 0.8
[2], 323.15 K, w2 = 0.00412 | 1073.79 ± 4.1 | – | –
[2], 323.15 K, w2 = 0.005 | – | – | 57.5 ± 0.8
[2], 323.15 K, w2 = 0.00573 | 1073.46 ± 4.1 | – | –
[2], 323.15 K, w2 = 0.00649 | – | – | 57.8 ± 0.8
[2], 323.15 K, w2 = 0.00724 | 1073.19 ± 4.1 | – | –
[2], 323.15 K, w2 = 0.00802 | – | – | 58.2 ± 0.8
[2], 328.15 K, w2 = 0.00121 | 1071.24 ± 4.1 | – | –
[2], 328.15 K, w2 = 0.00205 | – | – | 56.5 ± 0.8
[2], 328.15 K, w2 = 0.00271 | 1070.97 ± 4.1 | – | –
[2], 328.15 K, w2 = 0.0035 | – | – | 56.8 ± 0.8
[2], 328.15 K, w2 = 0.00412 | 1070.72 ± 4.1 | – | –
[2], 328.15 K, w2 = 0.005 | – | – | 57.2 ± 0.8
[2], 328.15 K, w2 = 0.00573 | 1070.41 ± 4.1 | – | –
[2], 328.15 K, w2 = 0.00649 | – | – | 57.5 ± 0.8
[2], 328.15 K, w2 = 0.00724 | 1070.15 ± 4.1 | – | –
[2], 328.15 K, w2 = 0.00802 | – | – | 57.8 ± 0.8
[2], 333.15 K, w2 = 0.00121 | 1068.17 ± 4.1 | – | –
[2], 333.15 K, w2 = 0.00205 | – | – | 56.2 ± 0.8
[2], 333.15 K, w2 = 0.00271 | 1067.92 ± 4.1 | – | –
[2], 333.15 K, w2 = 0.0035 | – | – | 56.5 ± 0.8
[2], 333.15 K, w2 = 0.00412 | 1067.67 ± 4.1 | – | –
[2], 333.15 K, w2 = 0.005 | – | – | 56.9 ± 0.8
[2], 333.15 K, w2 = 0.00573 | 1067.34 ± 4.1 | – | –
[2], 333.15 K, w2 = 0.00649 | – | – | 57.2 ± 0.8
[2], 333.15 K, w2 = 0.00724 | 1067.04 ± 4.1 | – | –
[2], 333.15 K, w2 = 0.00802 | – | – | 57.6 ± 0.8
[2], 338.15 K, w2 = 0.00121 | 1065.15 ± 4.1 | – | –
[2], 338.15 K, w2 = 0.00205 | – | – | 55.8 ± 0.8
[2], 338.15 K, w2 = 0.00271 | 1064.88 ± 4.1 | – | –
[2], 338.15 K, w2 = 0.0035 | – | – | 56.1 ± 0.8
[2], 338.15 K, w2 = 0.00412 | 1064.64 ± 4.1 | – | –
[2], 338.15 K, w2 = 0.005 | – | – | 56.5 ± 0.8
[2], 338.15 K, w2 = 0.00573 | 1064.3 ± 4.1 | – | –
[2], 338.15 K, w2 = 0.00649 | – | – | 56.8 ± 0.8
[2], 338.15 K, w2 = 0.00724 | 1063.99 ± 4.1 | – | –
[2], 338.15 K, w2 = 0.00802 | – | – | 57.1 ± 0.8
